ChEMBL document CHEMBL5505964, “HDAC/NAMPT dual inhibitors overcome initial drug-resistance in p53-null leukemia cells” (Eur J Med Chem, 2024)

What was measured:
Histone deacetylase 7 = molecular target: T1, Histone deacetylase 7 (Homo sapiens, UniProt Q8WUI4); experiment: Inhibition of N-terminal GST-tagged human HDAC7 (518 to end residues) expressed in baculovirus-infected Sf9 cells using Boc-Lys-(trifluoroacetyl)-AMC as substrate preincubated with enzyme for 1 hr followed by substrate addition and measured after 2 hrs by fluorescence analysis
T1 sequence (Q8WUI4 whole entry): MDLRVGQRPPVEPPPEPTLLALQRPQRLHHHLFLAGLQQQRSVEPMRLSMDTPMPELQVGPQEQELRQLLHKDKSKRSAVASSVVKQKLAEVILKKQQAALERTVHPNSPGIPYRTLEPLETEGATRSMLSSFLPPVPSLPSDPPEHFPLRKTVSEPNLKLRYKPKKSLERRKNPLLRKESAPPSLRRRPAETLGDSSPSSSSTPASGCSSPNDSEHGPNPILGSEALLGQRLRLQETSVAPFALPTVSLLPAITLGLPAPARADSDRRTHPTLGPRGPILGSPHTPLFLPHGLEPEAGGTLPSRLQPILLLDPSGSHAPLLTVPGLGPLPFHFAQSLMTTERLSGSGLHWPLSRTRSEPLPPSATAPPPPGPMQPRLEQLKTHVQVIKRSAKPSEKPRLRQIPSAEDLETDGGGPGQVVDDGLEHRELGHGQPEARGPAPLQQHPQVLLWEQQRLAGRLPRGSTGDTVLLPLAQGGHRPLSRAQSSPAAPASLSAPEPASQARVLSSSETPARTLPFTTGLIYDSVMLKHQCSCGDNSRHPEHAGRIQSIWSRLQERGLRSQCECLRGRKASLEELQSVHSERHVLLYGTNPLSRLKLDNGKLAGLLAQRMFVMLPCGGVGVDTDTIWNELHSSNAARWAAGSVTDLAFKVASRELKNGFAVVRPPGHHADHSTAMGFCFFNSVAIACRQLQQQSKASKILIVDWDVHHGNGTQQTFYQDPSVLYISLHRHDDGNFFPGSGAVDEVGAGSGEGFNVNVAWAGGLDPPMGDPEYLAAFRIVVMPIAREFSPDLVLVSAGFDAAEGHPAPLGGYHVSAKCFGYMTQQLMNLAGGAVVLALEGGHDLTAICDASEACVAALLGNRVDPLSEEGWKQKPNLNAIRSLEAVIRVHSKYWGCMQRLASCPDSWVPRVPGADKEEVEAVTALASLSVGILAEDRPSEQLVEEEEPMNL

Histone deacetylase 8 = molecular target: T2, Histone deacetylase 8 (Homo sapiens, UniProt Q9BY41); experiment: Inhibition of C-terminal His-tagged full length human recombinant HDAC8 (1 to 377 residues) expressed in baculovirus-infected Sf9 cells using Boc-Lys-(trifluoroacetyl)-AMC as substrate preincubated with enzyme for 1 hr followed by substrate addition and measured after 2 hrs by fluorescence analysis
T2 sequence (Q9BY41 whole entry): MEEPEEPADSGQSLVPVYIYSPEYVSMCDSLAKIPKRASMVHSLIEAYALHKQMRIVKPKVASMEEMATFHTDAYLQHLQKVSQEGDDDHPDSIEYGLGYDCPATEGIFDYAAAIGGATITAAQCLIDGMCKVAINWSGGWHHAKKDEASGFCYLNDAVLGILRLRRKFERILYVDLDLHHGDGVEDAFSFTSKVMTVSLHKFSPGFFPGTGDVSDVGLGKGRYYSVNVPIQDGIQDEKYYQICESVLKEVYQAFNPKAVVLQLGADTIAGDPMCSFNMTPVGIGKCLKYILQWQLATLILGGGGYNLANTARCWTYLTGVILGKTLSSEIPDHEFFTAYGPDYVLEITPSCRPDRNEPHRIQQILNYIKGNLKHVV

Histone deacetylase 5 = Histone deacetylase 5 (Homo sapiens, UniProt Q9UQL6); experiment: Inhibition of C-terminal His-tagged human HDAC5 catalytic domain (656 to 1122 residues) expressed in baculovirus-infected Sf9 cells using Boc-Lys-(trifluoroacetyl)-AMC as substrate preincubated with enzyme for 1 hr followed by substrate addition and measured after 2 hrs by fluorescence analysis
HL-60 = experiment: Antiproliferative activity against p53-null human HL-60 cells assessed as inhibition of cell growth incubated for 48 hrs by resazurin dye based fluorescence analysis; type: functional
Histone deacetylase 9 = Histone deacetylase 9 (Homo sapiens, UniProt Q9UKV0); experiment: Inhibition of C-terminal His-tagged human recombinant HDAC9 (604 to 1066 residues) expressed in baculovirus-infected Sf9 cells using Boc-Lys-(trifluoroacetyl)-AMC as substrate preincubated with enzyme for 1 hr followed by substrate addition and measured after 2 hrs by fluorescence analysis
MV4-11 = experiment: Antiproliferative activity against human MV4-11 cells harboring wild type p53 assessed as induction of cell death incubated for 48 hrs by resazurin dye based fluorescence analysis; type: functional; details: read-out: LD50 (the source's name)

Chain of Histone deacetylase 9 (Q9UKV0 whole entry, the tested form may be a part): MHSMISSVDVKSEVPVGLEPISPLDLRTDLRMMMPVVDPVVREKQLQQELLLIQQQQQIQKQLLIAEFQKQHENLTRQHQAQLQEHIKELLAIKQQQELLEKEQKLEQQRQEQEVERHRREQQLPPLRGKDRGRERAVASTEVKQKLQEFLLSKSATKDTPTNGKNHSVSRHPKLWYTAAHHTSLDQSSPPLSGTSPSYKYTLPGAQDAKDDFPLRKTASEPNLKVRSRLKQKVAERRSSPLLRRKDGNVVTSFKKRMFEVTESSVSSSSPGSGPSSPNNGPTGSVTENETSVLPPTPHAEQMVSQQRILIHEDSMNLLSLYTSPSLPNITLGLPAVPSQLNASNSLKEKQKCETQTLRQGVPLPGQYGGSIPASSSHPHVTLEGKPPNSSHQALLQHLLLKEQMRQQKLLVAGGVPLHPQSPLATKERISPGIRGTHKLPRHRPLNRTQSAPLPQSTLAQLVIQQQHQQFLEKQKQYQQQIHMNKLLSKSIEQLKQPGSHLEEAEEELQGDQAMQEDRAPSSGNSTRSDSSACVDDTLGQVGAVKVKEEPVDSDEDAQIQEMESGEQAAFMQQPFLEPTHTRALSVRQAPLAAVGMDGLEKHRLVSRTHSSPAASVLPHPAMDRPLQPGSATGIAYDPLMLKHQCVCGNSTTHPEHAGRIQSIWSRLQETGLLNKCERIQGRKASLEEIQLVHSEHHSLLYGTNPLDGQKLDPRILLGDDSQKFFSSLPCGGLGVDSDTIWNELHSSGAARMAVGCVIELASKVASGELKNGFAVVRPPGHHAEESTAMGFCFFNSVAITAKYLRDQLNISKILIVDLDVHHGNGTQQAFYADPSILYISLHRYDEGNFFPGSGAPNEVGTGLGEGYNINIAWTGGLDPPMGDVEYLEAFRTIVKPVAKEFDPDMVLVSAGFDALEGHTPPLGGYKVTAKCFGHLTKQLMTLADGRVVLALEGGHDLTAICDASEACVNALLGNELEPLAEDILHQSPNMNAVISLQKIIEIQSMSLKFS
Chain of Histone deacetylase 5 (Q9UQL6 whole entry, the tested form may be a part): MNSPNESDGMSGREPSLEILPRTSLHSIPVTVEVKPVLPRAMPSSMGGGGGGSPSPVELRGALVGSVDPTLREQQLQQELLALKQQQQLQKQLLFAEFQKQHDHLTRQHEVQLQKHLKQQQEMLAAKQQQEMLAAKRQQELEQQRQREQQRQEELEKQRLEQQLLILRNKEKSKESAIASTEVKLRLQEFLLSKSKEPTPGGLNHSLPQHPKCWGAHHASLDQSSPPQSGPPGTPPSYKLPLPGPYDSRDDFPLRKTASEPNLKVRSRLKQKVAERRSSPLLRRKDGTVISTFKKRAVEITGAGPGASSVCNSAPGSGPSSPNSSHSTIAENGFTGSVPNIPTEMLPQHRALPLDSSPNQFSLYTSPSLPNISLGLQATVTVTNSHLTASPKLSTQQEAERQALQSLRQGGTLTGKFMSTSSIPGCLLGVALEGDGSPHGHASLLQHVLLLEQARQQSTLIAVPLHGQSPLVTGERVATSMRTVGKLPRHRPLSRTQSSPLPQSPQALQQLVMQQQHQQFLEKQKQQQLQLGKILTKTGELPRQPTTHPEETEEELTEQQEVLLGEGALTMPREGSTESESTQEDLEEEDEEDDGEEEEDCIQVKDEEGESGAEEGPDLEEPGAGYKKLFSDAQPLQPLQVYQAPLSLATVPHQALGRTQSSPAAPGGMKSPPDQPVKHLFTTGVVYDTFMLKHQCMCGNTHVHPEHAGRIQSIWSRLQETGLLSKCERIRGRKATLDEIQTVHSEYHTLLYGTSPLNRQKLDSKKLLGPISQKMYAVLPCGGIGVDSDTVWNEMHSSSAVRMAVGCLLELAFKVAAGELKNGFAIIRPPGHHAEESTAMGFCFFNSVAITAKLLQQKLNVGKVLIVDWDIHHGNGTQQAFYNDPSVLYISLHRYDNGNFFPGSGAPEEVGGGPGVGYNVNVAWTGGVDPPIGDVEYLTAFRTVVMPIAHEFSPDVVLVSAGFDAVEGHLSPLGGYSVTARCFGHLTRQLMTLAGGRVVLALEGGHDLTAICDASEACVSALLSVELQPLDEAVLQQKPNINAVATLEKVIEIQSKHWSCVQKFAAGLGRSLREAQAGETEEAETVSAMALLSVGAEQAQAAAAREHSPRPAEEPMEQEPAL

Structure (SMILES)	IC50 (Histone deacetylase 7)	IC50 (Histone deacetylase 8)	IC50 (Histone deacetylase 5)	GI50 (HL-60)	IC50 (Histone deacetylase 9)	CC50 (MV4-11)
CCCNNC(=O)c1ccc(CNC(=O)c2cc3cnccc3[nH]2)cc1	> 10 µM	> 10 µM	> 10 µM	0.0512 µM	> 10 µM	0.0582 µM
CCCNNC(=O)c1ccc(CNC(=O)/C=C/c2cccnc2)cc1	> 10 µM	> 10 µM	> 10 µM	0.0422 µM	> 10 µM	0.218 µM
